The values that follow come from patent publication US20240401027A1, “METHOD FOR IMPROVED INTRON TAGGING AND AUTOMATED CLONE RECOGNITION” (PROXYGEN GMBH, priority 2021, published 2024).

In the assay the test system is pool of HAP1 cells expressing GFP-tagged proteins. Kind of assay: Live cell imaging of GFP-tagged HAP1 cell pool and arrayed clones: compound effects on levels and localization of tagged proteins. It is filed as cell-based, human. Here is the method: Live cell imaging was performed on a PerkinElmer Opera Phenix microscope with excitation laser 488 nm, and emission filter 500-550 nm, 700 ms.
Identification of the expressed sgRNAs by in situ sequencing was performed by following and modifying published protocols, see, e.g., Feldman (2019) loc. cit; Ke (2013) Nat Methods 10, 857-60; and Larsson (2010) Nat Methods 7, 395-7.
Reverse transcription mix (1× RevertAid RT buffer, 250 µM dNTPs, 0.2 mg/mL BSA, 1 µM RT primer, 0.8 U/mL Ribolock RNase inhibitor, and 4.8 U/mL RevertAid H minus reverse transcriptase) was added to the sample and incubated for 16 hours at 37° C. Following reverse transcription, cells were washed 5 times with PBS-T and post-fixed with 3% paraformaldehyde and 0.1% glutaraldehyde for 30 minutes at room temperature and washed 5 times with PBS-T. Cells were incubated in a padlock probe and extension-ligation reaction mix (1× Ampligase buffer, 0.4 U/mL RNase H, 0.2 mg/mL BSA, 100 nM padlock probe, 0.02 U/mL KlenTaq polymerase, 0.5 U/mL Ampligase and […]) for 5 minutes at 37° C. and 90 minutes at 45° C., and then washed 2 times with PBS-T. Circularized padlocks were amplified with rolling circle amplification mix (1× Phi29 buffer, 250 µM dNTPs, 0.2 mg/mL BSA, 5% glycerol, and 1 U/mL Phi29 DNA polymerase) at 30° C. for 4 hours. Rolling circle amplicons were prepared for sequencing by hybridizing a mix containing sequencing primer oSBS_CROP-seq (1 µM primer in 2×SSC+10% formamide) for 30 minutes at room temperature. Barcodes were read out using sequencing-by-synthesis reagents from the Illumina NextSeq 500/550 kit v2 (Illumina 15057934). First, samples were washed with incorporation buffer (NextSeq 500/550 buffer cartridge, position 35) and incubated for 4 minutes in incorporation mix (NextSeq 500/550 reagent cartridge, position 31) at 60° C. Samples were then washed with incorporation buffer (4 washes, 60° C. for 4 minutes at the last wash) and placed in scan mix (NextSeq 500/550 reagent cartridge, position 30) for imaging. Imaging was performed on a PerkinElmer Opera Phenix microscope with excitation laser: 561 nm, emission filter: 570-630, 500 ms; excitation laser: 640 nm, emission filter: 650-760 nm, 500 ms using a 63× water immersion objective, confocal mode. Based were detected as follows: Base T: signal in 561 channel; Base C: signal in 640 channel, Base A: (weaker) signal in both channels, Base G: no signal. Following each imaging cycle, samples were washed with the cleavage mix (NextSeq 500/550 reagent cartridge, position 29) once followed by incubation with cleavage mix for 4 minutes at 60° C. to remove dye terminators. Samples were washed 5 times with incorporation buffer before starting the next cycle.
It was reasoned that the highly diverse pool of cells expressing GFP-tagged proteins can be used to identify compounds that change protein levels or localization of any of the tagged proteins. […] The application of the CROP-seq vector16 that expresses the sgRNA sequence in a polyadenylated mRNA transcript enables the cell-specific identification of the targeted intron by situ sequencing (see also Feldman, D. et al. Cell 179, 787-799 e17 (2019), Ke, R. et al. Nat Methods 10, 857-60 (2013), Larsson, C. et al. Nat Methods 7, 395-7 (2010). 17-19). To map targeted introns, the cell pool was fixed and a modified in situ sequencing protocol was developed to identify the sgRNA sequence integrated into individual cells in the pool. Based on the library diversity, eight cycles of nucleotide incorporation and imaging are sufficient to unambiguously assign sgRNA sequences (FIG. 6c). Application of this protocol to the cell pool confirmed that in clones with drastic loss of signal GFP was indeed targeted to BRD4 (FIG. 6d).
Therefore, the cell pool was treated with methotrexate (MTX), an antimetabolite impairing DNA and RNA synthesis and causing DNA damage by inhibiting tetrahydrofolate metabolism. […]

Where [1] appears, read: dBET6-treated cell pool, FIG. 6e.

On to `CN(Cc1cnc2nc(N)nc(N)c2n1)c1ccc(C(=O)N[C@@H](CCC(=O)O)C(=O)O)cc1` [methotrexate], for which, where the note is “1 µM methotrexate (FIG. 10)”, the DR1 nuclear signal result is “gain of nuclear signal”, the “GFP-tagged RPA1 localization” value is on record as “formation of nuclear foci”, the “GFP-tagged RPA2 localization” value was “formation of nuclear foci” and the NUDT21 nuclear signal result is on record as “gain of nuclear signal”. Further, under “1 µM methotrexate (FIG. 10)”, the PADI1 protein entry is “decreases”, the RUVBL1 protein entry is listed as “decreases”, the TPI1 nuclear signal entry is “gain of nuclear signal” and the “nuclear DNMT1 foci” value is “disappearance of nuclear DNMT1 foci”. Also, the “GFP-tagged ACLY localization” value (24 h MTX treatment, 1 µM methotrexate (FIG. 10)) was “increased nuclear localization”.

In the case of `Cc1sc2c(c1C)C(c1ccc(Cl)cc1)=N[C@@H](CC(=O)NCCCCCCCCNC(=O)COc1cccc3c1C(=O)N(C1CCC(=O)NC1=O)C3=O)c1nnc(C)n1-2` (some centres unmarked) [dBET6], under setting [1], the AKAP8 localization entry is given as “gain of nuclear foci”, the FUBP3 localization result is “loss of subnuclear localization patterns”, the MEAF1 localization result is “loss of subnuclear localization patterns” and the SFPQ localization result is given as “gain of nuclear foci”. For the same molecule, under setting [1], the UNG nuclear intensity result is on record as “loss of nuclear intensity”.
